Where only a bound is given, the exact number is not on record here.

Format in all cases: biochemical
Experiment [1] concerns the target human JAK1 (a.a. 837-1142) (Homo sapiens, UniProt P23458). Put plainly: In vitro JAK kinase assay (HTRF, phosphorylation of biotinylated peptide), JAK1. Conditions: measured at 1 mM ATP. How it is done: (§1) Compounds herein were tested for inhibitory activity of JAK targets according to the following in vitro assay described in Park et al., Analytical Biochemistry 1999, 269, 94-104. The catalytic domains of human JAK1 (a.a. 837-1142), Jak2 (a.a. 828-1132) and Jak3 (a.a. 781-1124) with an N-terminal His tag were expressed using baculovirus in insect cells and purified. The catalytic activity of JAK1, JAK2 or JAK3 was assayed by measuring the phosphorylation of a biotinylated peptide. The phosphorylated peptide was detected by homogenous time resolved fluorescence (HTRF). […] Reactions were carried out at room temperature for 1 hr and then stopped with 20 μL 45 mM EDTA, 300 nM SA-APC, 6 nM Eu-Py20 in assay buffer (Perkin Elmer, Boston, Mass.). Binding to the Europium labeled antibody took place for 40 minutes and HTRF signal was measured on a Fusion plate reader (Perkin Elmer, Boston, Mass.).

The target of experiment [2] is human JAK1 (a.a. 837-1142). Described as above. Conditions: measured at 1 mM ATP; JAK2 IC50 / JAK1 IC50. Here is the method:
as §1

Experiment [3] has as its target human Jak2 (a.a. 828-1132) (Homo sapiens (Human), UniProt O60674). Put plainly: In vitro JAK kinase assay (HTRF, phosphorylation of biotinylated peptide), JAK2. The following applies: measured at 1 mM ATP. Here is the method:
as §1
Background: In TR-FRET formats the signal depends on donor and acceptor labels being close together.

Chain of human Jak2 (a.a. 828-1132) (O60674 828-1132): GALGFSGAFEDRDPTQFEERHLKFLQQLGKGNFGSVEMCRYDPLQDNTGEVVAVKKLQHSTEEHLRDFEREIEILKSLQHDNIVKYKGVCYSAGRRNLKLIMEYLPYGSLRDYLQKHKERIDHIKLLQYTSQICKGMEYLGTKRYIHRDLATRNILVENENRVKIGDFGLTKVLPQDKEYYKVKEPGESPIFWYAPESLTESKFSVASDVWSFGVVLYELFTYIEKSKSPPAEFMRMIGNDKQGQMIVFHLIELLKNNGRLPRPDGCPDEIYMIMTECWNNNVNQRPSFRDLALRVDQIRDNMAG

With `CC(C)(C)C(=O)Nc1cc(CN2CCC(N3CC(CC#N)(n4cc(-c5ncnc6[nH]ccc56)cn4)C3)CC2)ccn1` [Example 235, N-{4-[(4-{3-(cyanomethyl)-3-[4-(7H-pyrrolo[2,3-d]pyrimidin-4-yl)-1H-pyrazol-1-yl]azetidin-1-yl}piperidin-1-yl)methyl]pyridin-2-yl}-2,2-dimethylpropanamide], the figures for the IC50 in experiment [1] and in experiment [3] were 5 to 20 nM and 10 to 50 nM, respectively. Besides, the “IC50 Ratio JAK2/JAK1” value in experiment [2] is reported as 2.5.
As for `N#CCC1(n2cc(-c3ncnc4[nH]ccc34)cn2)CN(C2CCN(Cc3ccc(F)cc3F)CC2)C1` [Example 217, {1-[1-(2,4-difluorobenzyl)piperidin-4-yl]-3-[4-(7H-pyrrolo[2,3-d]pyrimidin-4-yl)-1H-pyrazol-1-yl]azetidin-3-yl}acetonitrile], the 50% inhibitory concentration (IC50) (as a rule, the concentration needed to halve the response being measured) in experiment [1] was in the range of 5 to 20 nM; in experiment [3] it was 10 to 50 nM. Further, the “IC50 Ratio JAK2/JAK1” value in experiment [2] was found to be 5.8.
Consider “4-{3-(cyanomethyl)-3-[4-(7H-pyrrolo[2,3- d]pyrimidin-4-yl)-1H-pyrazol-1- yl]azetidin-1-yl}-N-(3,5-difluorophenyl) piperidine-1-carboxamide [Example 175]”, for which the values for the IC50 in experiment [1] and in experiment [3] were not above 5 nM and not above 10 nM, respectively. Moreover, the “IC50 Ratio JAK2/JAK1” value in experiment [2] was 3.6.
Regarding `N#CCC1(n2cc(-c3ncnc4[nH]ccc34)cn2)CN(C2CCN(C(=O)C3Cc4ccccc4C3)CC2)C1` [Example 99, {1-[1-(2,3-dihydro-1H-inden-2-ylcarbonyl)piperidin-4-yl]-3-[4-(7H-pyrrolo[2,3-d]pyrimidin-4-yl)-1H-pyrazol-1-yl]azetidin-3-yl}acetonitrile], the IC50 lay in the range of 5 to 20 nM in experiment [1] and 10 to 50 nM in experiment [3]. In addition, the “IC50 Ratio JAK2/JAK1” value in experiment [2] is 5.6.
Take “4-{3-(cyanomethyl)-3-[4-(7H-pyrrolo[2,3- d]pyrimidin-4-yl)-1H-pyrazol-1- yl]azetidin-1-yl}-N-(2-methylphenyl) piperidine-1-carboxamide [Example 185]”: the figures for the half-maximal inhibitory concentration (IC50) in experiment [1] and in experiment [3] were not above 5 nM and 10 to 50 nM, respectively. Besides, the “IC50 Ratio JAK2/JAK1” value in experiment [2] turned out to be 9.5.
For “4-{3-(cyanomethyl)-3-[4-(7H-pyrrolo[2,3- d]pyrimidin-4-yl)-1H-pyrazol-1- yl]azetidin-1-yl}-N-(2,5-difluorophenyl) piperidine-1-carboxamide [Example 174]”, the IC50 in experiment [1] is not above 5 nM; in experiment [3] it was not above 10 nM. The “IC50 Ratio JAK2/JAK1” value in experiment [2] worked out at 7.1.
For “4-{3-(cyanomethyl)-3-[3-(7H-pyrrolo[2,3- d]pyrimidin-4-yl)-1H-pyrrol-1- yl]azetidin-1-yl}-N-[4- (trifluoromethyl)pyridin-3-yl]piperidine- 1-carboxamide [Example 165]”, in that order: 5 to 20 nM, 50 to 100 nM and 10.4.
